# Reference: US9145375B2, “Quinazolinone compounds” (PRANA BIOTECHNOLOGY LIMITED, priority 2008, dated 2015)
# pIC50: −log10 of the molar value. Where “and” joins values, the source holds several entries; their conditions need not be identical. Equal entries are not always repeated. Where two headings read alike, the source gives them in different places.
# Legend:
# [1] = Plasma Protein Binding, human; type: in vitro ADME
# [2] = biological target: T1, CYP2C9 (Homo sapiens, UniProt P11712); test: CYP450 inhibition, specific substrate approach in human liver microsomes: CYP2C9; type: in vitro ADME
# T1 construct: using a specific substrate approach in human liver microsomes; from tissue; host or cells: human liver microsomes
# Description: (§1) CYP450 Isoform Inhibition Using a Specific Substrate Approach
# (§2) The present study is a “Tier 2” screen to assess potential enzyme inhibition at a test compound concentration of 20 μM using a specific substrate approach in human liver microsomes.
# (§3) The substrate specific enzyme inhibition study relies on the formation of a metabolite that is mediated by a specific CYP450 isoform using human liver microsomes. In the current study, the following reactions were monitored to assess interactions with specific CYP450 isoforms. A known inhibitor of each isoform was included in each assay as a positive control. The following IC50 values have been reported in the literature using equivalent assay conditions for each CYP450 isoform:
# (§4) The reaction was initiated by the addition of an NADPH-regenerating system and was quenched by the addition of acetonitrile prior to determining the concentration (and apparent rate of formation) of the specific metabolite by LC/MS.
# (§5) The IC50 was deemed to be the concentration at which there was a 50% reduction in the amount of metabolite formed, relative to the maximal extent of formation.
# [3] = biological target: T2, CYP2C19 (Homo sapiens, UniProt P33261); test: CYP450 inhibition, specific substrate approach in human liver microsomes: CYP2C19; type: in vitro ADME
# T2 construct: using a specific substrate approach in human liver microsomes; from tissue; host or cells: human liver microsomes
# Description: as §1, §2, §3, §4, §5
# [4] = biological target: T3, CYP2D6 (Homo sapiens, UniProt P10635); test: CYP450 inhibition, specific substrate approach in human liver microsomes: CYP2D6; type: in vitro ADME
# T3 construct: using a specific substrate approach in human liver microsomes; from tissue; host or cells: human liver microsomes
# Description: as §1, §2, §3, §4, §5
# [5] = system: MPTP induced cell death in the SN; test: Parkinson's disease in vivo: MPTP model; design: species or system mouse; details: MPTP mice; for Behaviour Pole Test, % (SSV = 0%) / Behaviour Pole Test, value ± SD: 30 mg/kg; for SN cell counts % of SSV / SN cell counts (cells +/− SD): test drug 30 mg/kg daily by oral gavage, several experiments
# Description: Parkinson's Disease In Vivo Technique: MPTP
# MPTP (1-methyl 4-phenyl 1,2,3,6-tetrahydropyridine) is a chemical that is related to the opioid analgesic drugs. MPTP causes Parkinsonian side-effects. This occurs when MPTP is metabolized into MPP+, which kills neurons in a part of the brain called the substantia nigra. MPP+ interferes with mitochondria metabolism which leads to cell death and causes the build up of free radicals, toxic molecules that contribute further to cell destruction. MPTP has abilities to effect neuronal death in dopaminergic cells. Such effects lead to gross depletion of dopaminergic neurons which has severe implications on cortical control of complex movements.
# General Experimental Design
# Determining that MPTP Causes Continued Cell Death
# Control (non tg) and transgenic mice receive five intraperitoneal injections of MPTP-HCl (23 gauge needle, 20 mg\kg of free base; Sigma, St. Louis, Mo., USA) dissolved in sterile 0.9% saline at 2-h interval in 1 day. Control animals receive five intraperitoneal injections of 0.9% saline. […] 20 C57BL6, 10 control and 10 hA53T tg are used to establish the precise dose of toxin at 2 weeks. Animals are allowed to recover for 1 week, 2 weeks, 1 month, 12, months and 18 months. The animals are killed and the brains removed for histological (stereological) and biochemical analysis.
# Determining Whether Test Drug Reduces MPTP Induced Cell Death
# Animals are treated as described above. They are treated with test drug 2 days after MPTP injection until death. Test drug is given by oral gavage at a daily dosage of 30 mg/kg. The time of killing the animals is dependant on the analysis of Experiment 1, normally one month or less.
# Drugs are administered by oral gavage, at a daily dosage of 30 mg/kg.
# Mice are assessed at prior to killing the mice for histological analysis.
# Motor coordination and strength are assessed using the rotarod. The rotarod consists of a plastic rotating rod of 3.6 cm axial diameter partitioned by metal disks into five sections to allow the testing of multiple mice simultaneously. Mice are trained on two sessions where the rotation speed is ramped from 0-30 rpm over 5 min and one training session where rotation is a constant 16 rpm for 5 min. Within two days of training, animals are formally assessed on the rotarod rotating at 16 rpm for a maximum of 3 min: the time to fall on this single test is the recorded data point.
# The pole is a 700 mm long, 5 mm diameter, wooden rod. The rod is supported at its base and held vertical. The total walking distance for the mice is 550 mm. The time taken for the mouse to descend the pole is measured with a maximum time of 120 s. If a mouse falls, the time is scored as 120 s.
# [6] = biological target: CYP3A4 (Homo sapiens, UniProt P08684); test: CYP450 inhibition, specific substrate approach in human liver microsomes: CYP3A4; type: in vitro ADME; design: using a specific substrate approach in human liver microsomes; from tissue; host or cells: human liver microsomes
# Description: as §1, §2, §3, §4, §5
# [7] = midazolam, read-out: CYP3A4-Midazolam IC50
# [8] = testosterone, read-out: CYP3A4-Testosterone IC50
# T1 sequence (P11712 whole entry): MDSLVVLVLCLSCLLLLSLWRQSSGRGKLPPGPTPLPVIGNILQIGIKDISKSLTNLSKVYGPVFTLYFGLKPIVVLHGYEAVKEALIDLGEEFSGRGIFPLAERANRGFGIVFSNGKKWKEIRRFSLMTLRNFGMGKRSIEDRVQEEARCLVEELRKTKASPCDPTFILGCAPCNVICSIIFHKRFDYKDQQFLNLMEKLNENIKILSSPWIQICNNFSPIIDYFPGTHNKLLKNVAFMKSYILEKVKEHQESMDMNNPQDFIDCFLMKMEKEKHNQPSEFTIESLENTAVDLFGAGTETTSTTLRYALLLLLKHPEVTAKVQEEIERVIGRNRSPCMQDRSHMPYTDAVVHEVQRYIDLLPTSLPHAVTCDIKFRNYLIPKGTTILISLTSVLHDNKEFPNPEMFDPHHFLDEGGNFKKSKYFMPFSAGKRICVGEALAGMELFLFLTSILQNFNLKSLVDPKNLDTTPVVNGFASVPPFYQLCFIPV
# T3 sequence (P10635 whole entry): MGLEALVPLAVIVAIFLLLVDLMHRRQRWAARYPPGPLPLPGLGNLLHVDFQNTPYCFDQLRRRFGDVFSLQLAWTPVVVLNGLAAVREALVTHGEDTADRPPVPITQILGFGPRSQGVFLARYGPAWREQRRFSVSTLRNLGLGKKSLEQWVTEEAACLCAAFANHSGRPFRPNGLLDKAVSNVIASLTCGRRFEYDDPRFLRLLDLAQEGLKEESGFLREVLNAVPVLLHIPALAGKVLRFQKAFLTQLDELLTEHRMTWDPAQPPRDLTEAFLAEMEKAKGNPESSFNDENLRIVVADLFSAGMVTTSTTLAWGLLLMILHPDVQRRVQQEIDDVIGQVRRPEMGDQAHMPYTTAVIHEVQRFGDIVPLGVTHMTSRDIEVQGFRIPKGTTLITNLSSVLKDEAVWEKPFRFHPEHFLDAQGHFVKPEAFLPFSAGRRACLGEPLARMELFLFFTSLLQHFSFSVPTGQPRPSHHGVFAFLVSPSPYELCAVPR
# Sequence of CYP3A4 (P08684 2-503): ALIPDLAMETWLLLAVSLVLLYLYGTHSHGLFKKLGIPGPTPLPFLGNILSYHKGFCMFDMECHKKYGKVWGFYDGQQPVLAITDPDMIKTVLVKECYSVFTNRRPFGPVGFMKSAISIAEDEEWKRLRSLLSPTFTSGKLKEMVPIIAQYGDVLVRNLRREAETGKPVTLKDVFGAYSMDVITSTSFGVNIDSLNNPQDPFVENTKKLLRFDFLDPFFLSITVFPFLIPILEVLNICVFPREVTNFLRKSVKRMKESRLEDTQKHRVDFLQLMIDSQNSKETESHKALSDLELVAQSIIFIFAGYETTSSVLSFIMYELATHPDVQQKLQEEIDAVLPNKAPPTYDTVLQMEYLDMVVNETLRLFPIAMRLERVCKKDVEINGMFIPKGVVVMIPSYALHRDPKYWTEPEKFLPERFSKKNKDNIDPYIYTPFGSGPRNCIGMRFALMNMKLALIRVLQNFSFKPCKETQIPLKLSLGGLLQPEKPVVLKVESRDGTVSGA
# T2 sequence (P33261 whole entry): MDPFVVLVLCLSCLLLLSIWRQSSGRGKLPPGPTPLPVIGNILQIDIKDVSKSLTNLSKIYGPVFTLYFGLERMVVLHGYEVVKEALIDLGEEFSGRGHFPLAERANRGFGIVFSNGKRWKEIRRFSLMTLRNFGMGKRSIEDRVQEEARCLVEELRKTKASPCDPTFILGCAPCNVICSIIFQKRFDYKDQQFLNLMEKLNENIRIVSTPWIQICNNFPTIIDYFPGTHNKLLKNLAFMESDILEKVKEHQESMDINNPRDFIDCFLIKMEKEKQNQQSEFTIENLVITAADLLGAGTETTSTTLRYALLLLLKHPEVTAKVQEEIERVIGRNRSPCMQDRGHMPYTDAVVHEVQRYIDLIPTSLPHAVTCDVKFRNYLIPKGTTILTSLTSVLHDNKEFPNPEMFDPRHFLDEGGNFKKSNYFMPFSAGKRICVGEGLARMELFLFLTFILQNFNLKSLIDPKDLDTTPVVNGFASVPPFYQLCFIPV
Structure (SMILES),fraction unbound [1],pIC50 [2],pIC50 [3],pIC50 [4],"pIC50 [6, 7]","pIC50 [6, 8]","pIC50 ([6]; substrate not stated, read-out: CYP3A4 IC50)","pIC50 ([4]; human, liver microsomes, probe dextromethorphan 3 μM)","Behaviour Pole Test, % (SSV = 0%) [5] [%]","Behaviour Pole Test, value ± SD [5]",SN cell counts % of SSV [5],SN cell counts (cells +/− SD) [5]
CN(C)Cc1nc2c(O)c(Cl)cc(Cl)c2c(=O)n1CC1CC1 [Compound F4267],0.005,< 4.52,< 4.52,5.13,,,< 4.52,,,,53.94% and 53.77%,3331.96 ± 262.97 cells and 4315.11 ± 310.21 cells
Br.CCn1c(CNC)nc2c(O)c(Cl)cc(Cl)c2c1=O [Compound F4486],,,,,,,,,38.46,(1.81 ± 0.80),24.11%,2647.97 ± 814.44 cells
CCN(CC)Cc1nc2c(O)c(Cl)cc(Cl)c2c(=O)n1CC1CC1 [Compound F4385],0.008 to 0.013,< 4.52,< 4.52,5.29,4.67,< 4.52,,,,,31.49%,3690.00 ± 919.10 cells

# The next lines start with results.
fraction unbound [1],pIC50 [2],pIC50 [3],pIC50 [4],"pIC50 [6, 7]","pIC50 [6, 8]","pIC50 ([6]; substrate not stated, read-out: CYP3A4 IC50)","pIC50 ([4]; human, liver microsomes, probe dextromethorphan 3 μM)",Structure (SMILES),"Behaviour Pole Test, % (SSV = 0%) [5] [%]","Behaviour Pole Test, value ± SD [5]",SN cell counts % of SSV [5],SN cell counts (cells +/− SD) [5]
0.029,< 4.70,< 4.70,< 4.70,~4.70,< 4.70,,,CCn1c(CN(C)C)nc2c(O)c(Cl)cc(Cl)c2c1=O.Cl [Compound F4268],−25.38,(3.66 ± 1.87),40.35% and 74.83% and 64.00%,3797.33 ± 562.78 cells and 3065 ± 387 cells and 3163.87 ± 611.27 cells
0.023 to 0.024,< 4.52,< 4.52,5.02,< 4.52,< 4.52,,,CCNCc1nc2c(O)c(Cl)cc(Cl)c2c(=O)n1CC [Compound F4495],18.32,(2.26 ± 0.82),45.45% and 50.33%,
0.043,,,,,,,4.40,CNCc1nc2c(O)c(Cl)cc(Cl)c2c(=O)n1C [Compound F4161],2.55,(2.85 ± 1.63),28.05%,(2781.33 ± 382.88) cells
0.054 to 0.059,< 4.52,< 4.52,< 4.52,< 4.52,< 4.52,,,"CN(C)Cc1nc2c(O)c(Cl)cc(Cl)c2c(=O)n1C [Compound F4269, 5,7-Dichloro-2-(dimethylamino)methyl-8-hydroxy-3-methylquinazolin-4(3H)-one]",,,26.76%,3557.33 ± 556.55 cells
,< 4.52,< 4.52,< 4.52,5.36,5.07,,,Br.CCNCc1nc2c(O)c(Cl)cc(Cl)c2c(=O)n1C [Compound F4496],38.61,(1.79 ± 1.13),,
